Data taken from US20160184340A1, “THE USE OF SPINOSYNS AND SPINOSYN COMPOSITIONS AS LOCAL ANESTHETICS AND AS ANTIARRHYTHMIC AGENTS” (Entarco SA, priority 2010, published 2016).
Several values for one entry are separate records, joined by “and”; a condition that tells them apart may be missing. Equal values may be shown once. Where a name gives a salt, the structure may show the parent alone. Read-outs that look alike come from different tables or passages of the source.

What was measured:
[1] = molecular target: cloned hERG potassium channels (Homo sapiens, UniProt Q12809)
Sequence of cloned hERG potassium channels (Q12809 whole entry): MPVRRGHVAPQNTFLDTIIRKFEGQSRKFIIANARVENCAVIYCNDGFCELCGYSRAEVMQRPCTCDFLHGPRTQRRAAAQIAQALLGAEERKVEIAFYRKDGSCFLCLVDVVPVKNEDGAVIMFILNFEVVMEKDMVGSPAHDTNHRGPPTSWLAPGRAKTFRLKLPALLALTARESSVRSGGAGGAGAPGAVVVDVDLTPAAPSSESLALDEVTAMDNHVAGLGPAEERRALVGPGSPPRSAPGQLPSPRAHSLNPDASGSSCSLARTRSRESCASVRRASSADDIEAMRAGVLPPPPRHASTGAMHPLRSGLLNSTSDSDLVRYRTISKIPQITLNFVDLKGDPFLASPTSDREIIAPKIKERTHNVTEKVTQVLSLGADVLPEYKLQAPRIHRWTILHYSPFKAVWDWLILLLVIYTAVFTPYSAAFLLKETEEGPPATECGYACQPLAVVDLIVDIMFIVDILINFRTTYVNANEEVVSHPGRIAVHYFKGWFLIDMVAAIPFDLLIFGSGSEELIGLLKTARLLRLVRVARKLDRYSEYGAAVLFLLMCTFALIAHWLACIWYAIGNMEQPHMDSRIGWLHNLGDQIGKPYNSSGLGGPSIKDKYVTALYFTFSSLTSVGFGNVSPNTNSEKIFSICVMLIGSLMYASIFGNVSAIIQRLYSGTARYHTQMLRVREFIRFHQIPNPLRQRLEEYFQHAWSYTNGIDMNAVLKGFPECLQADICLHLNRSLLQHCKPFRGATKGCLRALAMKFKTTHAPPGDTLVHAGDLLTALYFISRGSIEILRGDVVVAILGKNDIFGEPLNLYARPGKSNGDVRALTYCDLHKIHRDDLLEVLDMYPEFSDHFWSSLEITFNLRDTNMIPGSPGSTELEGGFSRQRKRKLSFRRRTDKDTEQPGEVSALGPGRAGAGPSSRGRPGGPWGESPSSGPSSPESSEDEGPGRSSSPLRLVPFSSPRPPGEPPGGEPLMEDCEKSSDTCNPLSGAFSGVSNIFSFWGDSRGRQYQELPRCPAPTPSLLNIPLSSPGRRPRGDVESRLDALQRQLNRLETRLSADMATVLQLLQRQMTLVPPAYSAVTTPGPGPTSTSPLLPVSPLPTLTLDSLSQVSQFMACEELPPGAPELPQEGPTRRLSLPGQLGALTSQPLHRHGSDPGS
Procedure: Rational for Ion channel selection: Inhibition of hERG (IKr) channels closely predicts the cardiac action potential prolongation. […] This stable expressed hERG cell line is widely used for hERG testing. The percentage inhibition of spinosad on human-ERG currents were evaluated from the gold standard manual patch clamp studies.
Test sample: spinosad (Supplier:Sigma-Aldrich/Fluka), in DMSO 9 mg/ml (0.8% w/w or approx. 12 mM)
Positive control: Terfenadine (Supplier: Sigma-Aldrich), in DMSO at a concentration of 1 mM.
All the final solutions contained no more than 0.3% DMSO.
Assay: Electrophysiology recording: Micropipette was pulled from borosilicate glass with the pipette tip resistance between 3-5 MΩ. For each experiment, a single dish of cells is removed from the incubator, washed twice with room temperature ECS and then placed on the microscope stage. A commercial patch clamp amplifier was used for the whole cell recordings.
Voltage protocol and current recording: The tail currents were evoked at room temperature once every 30 s by a 3 s −50 mV repolarizing pulse following a 2 s+50 mV depolarizing pulse with a hold voltage of −80 mV. A 50 ms depolarized pulse to −50 mV at the beginning of the voltage protocol served as a baseline for calculating the amplitude of the peak tail current. Only stable cells with recording parameters above threshold were allowed to enter the drug application procedure. The hERG currents were allowed to stabilize over a 3 minutes period in the presence of a vehicle alone prior to the application of spinosad. The cells were kept in the test solution until the peak tail current was stable (<5% change) for about 5 sweeps or for a maximum of 6 min, whichever came first.
Acceptance criteria for measurements: 1. Whole-cell membrane resistance (Rm) was greater than 1000 MΩ throughout the experiment. 2. Initial current was greater than 300 pA. 3. Series resistance value following establishment of whole-cell mode was less than 12 MΩ. 4. The leak current that the cell began with or developed over time was less than 10% of the ionic current magnitude (up to a maximum of 80 pA).

male Sprague-Dawley rats [2] = assay: Pain response testing, foot pinch test (Example 1, comparison with Lidocaine); type: in vivo; conditions: for Foot Pinch Test average per animal, round 1: group average (1 = no anesthetic effect, 0 = effect); for Foot Pinch Test average per animal, round 1 / Foot Pinch Test Results Round 1: 45 minutes post dose; for Foot Pinch Test average per animal, round 1 / Foot Pinch Test average per animal, round 2 / Foot Pinch Test average per animal, round 3 / Foot Pinch Test average per animal, round 4 / Foot Pinch Test average per animal, round 5 / Foot Pinch Test average per animal, round 6: SQ 1.33 mL/kg (spinosad 12 mg/kg; Lidocaine 26.6 mg/kg); for Foot Pinch Test average per animal, round 2 / Foot Pinch Test average per animal, round 3 / Foot Pinch Test average per animal, round 4 / Foot Pinch Test average per animal, round 5 / Foot Pinch Test average per animal, round 6: group average; for Foot Pinch Test average per animal, round 2 / Foot Pinch Test Results Round 2: 70 minutes post dose; for Foot Pinch Test average per animal, round 3 / Foot Pinch Test Results Round 3: 1.5 hour post dose; for Foot Pinch Test average per animal, round 4 / Foot Pinch Test Results Round 4: 2 hours post dose; for Foot Pinch Test average per animal, round 5 / Foot Pinch Test Results Round 5: 2.5 hours post dose; for Foot Pinch Test average per animal, round 6 / Foot Pinch Test Results Round 6: 4 hours post dose; for Foot Pinch Test Results Round 1 / Foot Pinch Test Results Round 2 / Foot Pinch Test Results Round 3 / Foot Pinch Test Results Round 4 / Foot Pinch Test Results Round 5 / Foot Pinch Test Results Round 6: individual animal; for Foot Pinch Test Results Round 1: single SQ 1.33 mL/kg into left hind foot (spinosad 12 mg/kg; Lidocaine 2% solution, 26.6 mg/kg); for Foot Pinch Test Results Round 2 / Foot Pinch Test Results Round 3 / Foot Pinch Test Results Round 4 / Foot Pinch Test Results Round 5 / Foot Pinch Test Results Round 6: single SQ 1.33 mL/kg (spinosad 12 mg/kg; Lidocaine 26.6 mg/kg)
Procedure: Positive control: Lidocaine (Manufacturer: VetTek), as a Lidocaine Hydrochloride (2% solution or approx. 74 mM)
Assay: Pain response testing-foot pinch
Animals used: male Sprague-Dawley rats
Experimental set-up. The test article was administered as follows:
Approximately 1.33 mL/kg spinosad solution was administered once, subcutaneously at 12 mg/kg (9 mg/mL, 1.33 mL/kg) into the left hind foot of each rat in the treatment group (Group 3), positive control group (Group 2, Lidocaine, 1.33 mL/kg), and control vehicle group (Group 1, DMSO, 1.33 mL/kg).
Beginning approximately 45 minutes post-dose all animals were subjected to pain response testing, foot pinch test. The test was conducted on each rat, in order, and then repeated on each, 5 more times (6 rounds of testing) through 4 hours post-dose. The foot pinch test measured the rodent's tolerance of pressure on their foot. The rat was removed from its cage and the treated foot was pinched. Whether or not the rodent's foot responded to the pinch was documented. The treatment group averages were compared to positive and negative control group averages (Table 3 and FIG. 1).
Six total rounds of foot pinch-pain response testing were conducted at approximately 45, 70, 90, 120, 150, and 240 minutes post-dose. Time of dosing and pain testing results were recorded for each animal.

[3] = no value or species printed; cited from earlier work
male Sprague-Dawley rats [4] = assay: Foot pinch test, duration of action and reversible effects (Example 2); type: in vivo; conditions: for Foot Pinch Test average per animal, round 1 / Foot Pinch Test average per animal, round 2 / Foot Pinch Test average per animal, round 3 / Foot Pinch Test average per animal, round 4 / Foot Pinch Test average per animal, round 5: group average; for Foot Pinch Test average per animal, round 1 / Foot Pinch Test Results Round 1: 1 hour post dose; for Foot Pinch Test average per animal, round 2 / Foot Pinch Test Results Round 2: 4 hours post dose; for Foot Pinch Test average per animal, round 3 / Foot Pinch Test Results Round 3: 6 hours post dose; for Foot Pinch Test average per animal, round 4 / Foot Pinch Test Results Round 4: 8 hours post dose; for Foot Pinch Test average per animal, round 5 / Foot Pinch Test Results Round 5: 24 hours post dose; for Foot Pinch Test Results Round 2 / Foot Pinch Test Results Round 3 / Foot Pinch Test Results Round 4 / Foot Pinch Test Results Round 5 / Foot Pinch Test Results Round 1: individual animal
Procedure: This test was conducted to establish spinosad's reversible local anesthetic effects and confirm the prolonged effect. The same assay as in example 1 was used.
Test article: spinosad in DMSO 9 mg/ml, administered in two doses; high dose 9 mg/kg and low dose 4.5 mg/kg.
The treatment group averages were compared to positive and negative control group averages (Table 6 and FIG. 2).

## spinosad
[1]; 1.35 μM
  % Block Cell #2: 3.5%
  % Block Cell #3: 0.6%
  Average Inhibition (%) of hERG currents: 7.2±8.9%
[1]; 1.35 μM, hERG tail current, room temperature
  % Block Cell #1: 17.3%
[1]; 4.50 μM
  % Block Cell #1: 26.9%
  % Block Cell #2: 19.2%
  % Block Cell #3: 19.4%
  Average Inhibition (%) of hERG currents: 21.8±4.4%
[1]; 13.50 μM
  % Block Cell #1: 30.3%
  % Block Cell #2: 48.4%
  % Block Cell #3: 47.7%
  % Block Cell #4: 40.2%
  Average Inhibition (%) of hERG currents: 41.7±8.4%
[1]; 36.00 μM
  % Block Cell #2: 77.5%
  % Block Cell #3: 84.1%
  % Block Cell #4: 73.2%
  Average Inhibition (%) of hERG currents: 78.3±5.5%
[1]; saline wash
  Reversibility of blocking on hERG current: reversible after one minute of saline wash
[1]; whole cell recordings, HEK293-hERG stable cell line
  Concentration dependence of hERG current inhibition: inhibited hERG currents in a concentration-dependent manner
Male Sprague-Dawley rats [2]
  Foot Pinch Test average per animal, round 1: 0.00
  Foot Pinch Test average per animal, round 2: 0.00
  Foot Pinch Test average per animal, round 3: 0.17
  Foot Pinch Test average per animal, round 4: 0.17
  Foot Pinch Test average per animal, round 5: 0.33
  Foot Pinch Test average per animal, round 6: 0.50
  Foot Pinch Test Results Round 1: 0.00
  Foot Pinch Test Results Round 2: 0.00
  Foot Pinch Test Results Round 3: 0.00 (5×) and 1.00
  Foot Pinch Test Results Round 4: 0.00 (5×) and 1.00
  Foot Pinch Test Results Round 5: 0.00 (4×) and 1.00 (2×)
  Foot Pinch Test Results Round 6: 0.00 (3×) and 1.00 (3×)
Male Sprague-Dawley rats [2]; single SQ dose 12 mg/kg, study duration 4 hours
  Duration of local anesthetic effect (remained unresolved): ≥ 4 h
Male Sprague-Dawley rats [2]; single subcutaneous dose into the footpad at 12 mg/kg
  Tolerability: well tolerated
[3]
  LD50 relative to lidocaine: much higher LD50 than lidocaine
Male Sprague-Dawley rats [4]; 4.5 mg/kg SQ
  Foot Pinch Test average per animal, round 1: 0.50
  Foot Pinch Test average per animal, round 2: 0.83
  Foot Pinch Test average per animal, round 3: 1.00
  Foot Pinch Test average per animal, round 4: 1.00
  Foot Pinch Test average per animal, round 5: 1.00
  Foot Pinch Test Results Round 3: 1.00
  Foot Pinch Test Results Round 4: 1.00
  Foot Pinch Test Results Round 5: 1.00
Male Sprague-Dawley rats [4]; 9.0 mg/kg SQ
  Foot Pinch Test average per animal, round 1: 0.00
  Foot Pinch Test average per animal, round 2: 0.17
  Foot Pinch Test average per animal, round 3: 0.50
  Foot Pinch Test average per animal, round 4: 0.50
  Foot Pinch Test average per animal, round 5: 1.00
  Foot Pinch Test Results Round 5: 1.00
Male Sprague-Dawley rats [4]; 4.5 mg/kg SQ, 4.5 mg/kg
  Foot Pinch Test Results Round 2: 1.00 (5×) and 0.00
Male Sprague-Dawley rats [4]; 9.0 mg/kg SQ, 9 mg/kg
  Foot Pinch Test Results Round 2: 0.00 (5×) and 1.00
  Foot Pinch Test Results Round 3: 0.00 (3×) and 1.00 (3×)
  Foot Pinch Test Results Round 4: 0.00 (3×) and 1.00 (3×)
Male Sprague-Dawley rats [4]; spinosad high dose 9.0 mg/kg SQ foot pad
  Foot Pinch Test Results Round 1: 0.00
Male Sprague-Dawley rats [4]; spinosad low dose 4.5 mg/kg SQ foot pad, 4.5 mg/kg
  Foot Pinch Test Results Round 1: 1.00 (3×) and 0.00 (3×)
Male Sprague-Dawley rats [4]; single SQ dose 4.5 mg/kg
  Duration of local anesthetic effect: lasted during the first hour of study only
Male Sprague-Dawley rats [4]; single SQ dose 9 mg/kg
  Duration of local anesthetic effect (remained unresolved): 6 to 8 h
  Reversibility of local anesthetic effect: fully reversible at 24 hours
Male Sprague-Dawley rats [4]; single subcutaneous dose into the footpad at 9 mg/kg
  Tolerability: well tolerated

## CCN(CC)CC(=O)Nc1c(C)cccc1C [Lidocaine, Lidocaine Hydrochloride]
Male Sprague-Dawley rats [2]; Lidocaine group, 1.33 mL/kg SQ, post-dose
  Time by which localized anesthetic effect resolved: ~70 min
Male Sprague-Dawley rats [2]
  Foot Pinch Test average per animal, round 1: 0.00
  Foot Pinch Test average per animal, round 2: 0.67
  Foot Pinch Test average per animal, round 3: 1.00
  Foot Pinch Test average per animal, round 4: 1.00
  Foot Pinch Test average per animal, round 5: 1.00
  Foot Pinch Test average per animal, round 6: 1.00
  Foot Pinch Test Results Round 1: 0.00
  Foot Pinch Test Results Round 3: 1.00
  Foot Pinch Test Results Round 4: 1.00
  Foot Pinch Test Results Round 5: 1.00
  Foot Pinch Test Results Round 6: 1.00
Male Sprague-Dawley rats [2]; Hydrochloride
  Foot Pinch Test Results Round 2: 1.00 (4×) and 0.00 (2×)
